Data reported in patent US12016858B2, “Methods for the treatment of abnormal involuntary movement disorders” (AUSPEX PHARMACEUTICALS, INC., priority 2015, dated 2024).

Tested on: subjects with moderate to severe drug-induced tardive dyskinesia (TD)
Test: Open-label, single-arm long-term study in tardive dyskinesia
Type: in vivo, human
Settings: by Week 6
Description: An open-label, single-arm study in which male and female subjects with moderate to severe drug-induced tardive dyskinesia (TD) was conducted to evaluate the safety and tolerability of long-term maintenance therapy with deutetrabenazine, and to evaluate the efficacy of long-term maintenance therapy of deutetrabenazine to reduce the severity of abnormal involuntary movements of TD. Study Design. […] Dose Regimen. Deutetrabenazine tablets were provided in dosage strengths of 6, 9, 12, 15, and 18 mg. During dose adjustment/titration, deutetrabenazine was supplied in weekly blister cards. During long-term treatment, deutetrabenazine will be supplied in 30-count bottles. Study drug were administered as follows. All treatment regimens were administered twice daily (BID) with meals, approximately 10 hours apart during the day. […] If a subject experienced a clinically significant AE attributable to deutetrabenazine, the Investigator determined if a dose reduction or suspension was necessary. […] During titration, the investigator, in consultation with the subject determined when an adequate level of dyskinesia control had been achieved. […] If a subject experienced a clinically significant AE attributable to deutetrabenazine, the investigator determined if a dose reduction or suspension was necessary. […]

SMILES: [2H]C([2H])([2H])Oc1cc2c(cc1OC([2H])([2H])[2H])C1CC(=O)C(CC(C)C)CN1CC2 (stereo not drawn) [deutetrabenazine, (RR, SS)-1,3,4,6,7,11b-hexahydro-9,10-di(methoxy-d3)-3-(2-methylpropyl)-2H-benzo[a]quinolizin-2-one]
- subjects much or very much improved according to PGIC and CGIC: over 50%
